Reference: patent publication US20070225292A1, “Therapeutic Compounds: Pyridine as Scaffold” (priority 2004, published 2007)

How the values were obtained:
Human CB1 receptor [1] = target: T1, Human CB1 receptor (Homo sapiens, UniProt P21554); test: hCB1 receptor binding (3H-CP55,940 displacement); conditions: human CB1 membranes, Ki=IC50/(1+[rad]/Kd)
T1 construct: purchased Receptor Biology
Description: Human CB1 receptor from Receptor Biology (hCB1) or human CB2 receptor from BioSignal (hCB2) membranes are thawed at 37° C., passed 3 times through a 25-gauge blunt-end needle, diluted in the cannabinoid binding buffer (50 mM Tris, 2.5 mM EDTA, 5 mM MgCl2, and 0.5 mg/mL BSA fatty acid free, pH 7.4) and aliquots containing the appropriate amount of protein are distributed in 96-well plates. The IC50 of the compounds of the invention at hCB1 and hCB2 are evaluated from 10-point dose-response curves done with ^3H-CP55,940 at 20000 to 25000 dpm per well (0.17-0.21 nM) in a final volume of 300 μl. The total and non-specific binding are determined in the absence and presence of 0.2 μM of HU210 respectively. The plates are vortexed and incubated for 60 minutes at room temperature, filtered through Unifilters GF/B (presoaked in 0.1% polyethyleneimine) with the Tomtec or Packard harvester using 3 mL of wash buffer (50 mM Tris, 5 mM MgCl2, 0.5 mg BSA pH 7.0). The filters are dried for 1 hour at 55° C. The radioactivity (cpm) is counted in a TopCount (Packard) after adding 65 μl/well of MS-20 scintillation liquid.
Based on the above assays, the dissociation constant (Ki) for a particular compound of the invention towards a particular receptor is determined using the following equation: Ki=IC50/(1+[rad]/Kd),
Wherein IC50 is the concentration of the compound of the invention at which 50% displacement has been observed;
[rad] is a standard or reference radioactive ligand concentration at that moment; and
Kd is the dissociation constant of the radioactive ligand towards the particular receptor.

Human CB1 receptor [2] = target: T1, Human CB1 receptor; test: hCB1 GTPγS binding; format: biochemical; conditions: human CB1 membranes, GTPg35S binding; for Emax: maximal stimulated binding with 10 μM Win 55,212-2; for EC50: read-out: EC5O (hCB1)
Description: Human CB1 receptor from Receptor Biology (hCB1) or human CB2 receptor membranes (BioSignal) are thawed at 37° C., passed 3 times through a 25-gauge blunt-end needle and diluted in the GTPγS binding buffer (50 mM Hepes, 20 mM NaOH, 100 mM NaCl, 1 mM EDTA, 5 mM MgCl2, pH 7.4, 0.1% BSA). The EC50 and Emax of the compounds of the invention are evaluated from 10-point dose-response curves done in 300 μl with the appropriate amount of membrane protein and 100000-130000 dpm of GTPg^35S per well (0.11-0.14 nM). The basal and maximal stimulated binding is determined in absence and presence of 1 μM (hCB2) or 10 μM (hCB1) Win 55,212-2 respectively. The membranes are pre-incubated for 5 minutes with 56.25 μM (hCB2) or […] (hCB1) GDP prior to distribution in plates (15 μM (hCB2) or 30 μM (hCB1) GDP final). The plates are vortexed and incubated for 60 minutes at room temperature, filtered on Unifilters GF/B (presoaked in water) with the Tomtec or Packard harvester using 3 ml of wash buffer (50 mM Tris, 5 mM MgCl2, 50 mM NaCl, pH 7.0). The filters are dried for 1 hour at 55° C. The radioactivity (cpm) is counted in a TopCount (Packard) after adding 65 μl/well of MS-20 scintillation liquid. Antagonist reversal studies are done in the same way except that (a) an agonist dose-response curve is done in the presence of a constant concentration of antagonist, or (b) an antagonist dose-response curve is done in the presence of a constant concentration of agonist.

T1 sequence (P21554 whole entry): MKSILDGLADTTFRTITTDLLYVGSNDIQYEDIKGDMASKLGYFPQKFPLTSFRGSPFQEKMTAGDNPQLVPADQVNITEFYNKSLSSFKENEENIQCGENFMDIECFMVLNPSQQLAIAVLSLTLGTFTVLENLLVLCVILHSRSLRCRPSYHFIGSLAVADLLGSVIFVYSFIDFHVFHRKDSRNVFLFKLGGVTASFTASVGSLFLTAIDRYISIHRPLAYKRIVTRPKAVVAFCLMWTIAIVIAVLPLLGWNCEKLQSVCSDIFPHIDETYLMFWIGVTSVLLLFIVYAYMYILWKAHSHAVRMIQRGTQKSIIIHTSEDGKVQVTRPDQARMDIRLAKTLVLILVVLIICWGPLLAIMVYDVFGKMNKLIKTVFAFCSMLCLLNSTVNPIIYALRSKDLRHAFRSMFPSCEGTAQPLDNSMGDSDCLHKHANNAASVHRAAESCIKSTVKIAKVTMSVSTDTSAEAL

Row | SMILES | Ki (Human CB1 receptor [1]) [nM] | Emax (Human CB1 receptor [2]) [%] | EC50 (Human CB1 receptor [2]) [nM]
1 | O=C(NCC1CCCC1)c1ncccc1NC(=O)c1cccc2ccccc12 [Example 13, N-(Cyclopentylmethyl)-3-[(1-naphthalenylcarbonyl)amino]-2-pyridinecarboxamide] | 12 | 105 | 46
2 | O=C(NCC1CCOCC1)c1nccnc1NC(=O)c1cccc2ccccc12 [Example 43, 3-(1-Naphthoylamino)-N-(tetrahydro-2H-pyran-4-ylmethyl)pyrazine-2-carboxamide] | 181 | 112 | 907
3 | Cc1ccc(C(=O)Nc2cccnc2C(=O)NCc2ccccn2)c2ccccc12 [Example 80, 3-(4-Methyl 1-naphthoylamino)-N-(pyridin-2-ylmethyl)pyridine-2-carboxamide] | 221 | 75 | 1230
4 | O=C(NCC1CCCCC1)c1ncccc1NC(=O)c1ccc(N2CCC2)c2ccccc12 [Example 171, 3-[(4-Azetidin-1-yl-1-naphthoyl)amino]-N-(cyclohexylmethyl)pyridine-2-carboxamide] | 57 | 71 | 217
